Results published in publication PMC9923724, “Half sandwich-type osmium, ruthenium, iridium and rhodium complexes with bidentate glycosyl heterocyclic ligands induce cytostasis in platinum-resistant ovarian cancer cells and bacteriostasis in Gram-positive multiresistant bacteria” (Frontiers in Chemistry, 2023).
Where “and” joins values, the source holds several entries; their conditions need not be identical. Equal entries are not always repeated.

Columns and labels:
Format in all cases: cell-based
ID8 ovarian cancer cells [1] = test: MTT reduction assay (4 h) on ID8 cells
Method: (§1) 3 × 10^3 A2780 cells, 2 × 10^3 ID8 cells and 4 × 10^3 primary fibroblasts were plated to 96 well plates. Cells were treated with the compounds in the concentrations indicated for either 4 h for an MTT assay or for 48 h for an SRB assay. Data is represented as average ± SD, from three biological replicates; individual assays were performed in duplicates. Values were normalized for vehicle treated cells, absorbance for vehicle treated cells equals to 1. Statistical significance was assessed using two-way ANOVA test comparing the free ligand and each complex as a complex-ligand pair. Before the test normality was assessed using the D’Agostino-Pearson test. The ID8 SRB Ir-7+L-7 dataset had lognormal distribution. […] All other datasets had normal distribution. For better visibility the p values are presented in an excel sheet at https://figshare.com/s/2c942a812caea8869a67. Non-linear regression was performed on the A2780 SRB and the ID8 SRB datasets.
(§2) ID8 cells were cultured in high glucose DMEM (4.5 g/L glucose) medium supplemented with 4% fetal calf serum, 2 mM glutamine, 1% penicillin-streptomycin, 1% ITS supplement (I3146).
(§3) MTT reduction assay measures the activity of mitochondrial complex I and can be used to detect toxicity ([Virág et al., 1998]; [Henslee et al., 2016]). The assay was performed similar to ([Bakondi et al., 2003]). Briefly, cells were plated in 96 well plates the day before the assay. Cells were treated with the compounds for 4 h, then MTT was added in 0.5 mg/ml final concentration and cells were incubated at 37°C in a cell incubator. Culture media was removed and the reduced MTT dye was dissolved in dimethyl-sulfoxide (DMSO) and plates were measured in a plate photometer (Thermo Scientific Multiscan GO spectrophotometer, Waltham, MA, United States) at 540 nm. On each plate wells were designed to contain untreated/vehicle-treated cells. In calculations the readings for these wells was considered as 1 and all readings were expressed relative to these values.

[2] = test system: A2780 ovarian cancer cells; test: MTT reduction assay (rapid toxicity, 4 h) on A2780 cells; settings: 4 h treatment
Method: First, we assessed a set of osmium complexes (similar to Ia [[Kacsir et al., 2022]) in Figure 1] and their sugar-derived ligands, in which the benzoyl protective groups on the carbohydrate moiety were replaced by aliphatic acyl groups of different chain length (straight chain C3-C7–CO). Osmium was selected as a central ion, since osmium complexes had the best biological activity in our previous studies ([Balázs et al., 2022]; [Kacsir et al., 2022]). These compounds were tested on A2780 ovarian cancer cells for toxicity and cytostasis. The therapy of ovarian cancer is centered around platinum compounds ([Brown et al., 2019]; [Sipos et al., 2021]), therefore, it was logical to use a cellular model of ovarian cancer for the initial testing of the compounds. Toxicity was assessed using the MTT assay that measures the activity of mitochondrial complex I. We chose 4 h long treatment as in an MTT assay this time point is suitable to detect rapid, direct toxicity. Cytostasis was assessed after 48 h of treatment using the SRB assay that assesses protein content that corresponds to cell count. The characteristics of the compounds are detailed in Table 2.
3 × 10^3 A2780 cells, were plated to 96 well plates. Cells were treated with the compounds in the concentrations indicated for either 4 h for an MTT assay or for 48 h for an SRB assay. Data is represented as average ± SD, from three biological replicates; individual assays were performed in duplicates. Values were normalized for vehicle treated cells, absorbance for vehicle treated cells equals to 1. […] Except for the Os-6 complex, Two-way ANOVA test was performed and all values were compared with each other (Tukey’s post hoc test). […] Non-linear regression was performed on the data.
as §1, §3

[3] = test system: primary dermal fibroblasts; test: MTT reduction assay (4 h) on primary fibroblasts; settings: primary human dermal fibroblasts
Method: as §1
Human primary dermal fibroblasts were cultured in low glucose DMEM (1 g/L glucose) medium supplemented with 20% fetal calf serum, 2 mM glutamine, 1% penicillin-streptomycin.
as §3

ID8 ovarian cancer cells [4] = test: SRB assay (48 h) on ID8 cells
Method: as §1, §2
The assay was performed similar to ([Kovács et al., 2019]). Cells were seeded in 96 well plates the day before the assay. Cells were treated with the compounds for 48 h. Cells were fixed with 10% trichloroacetic acid (TCA). Fixed cells were washed in distilled water 3 times followed by staining with SRB (0.4 m/V% dissolved in 1% acetic acid) for 10 min. Stained cells were washed in 1% acetic acid 5 times; acetic acid was removed and cells were left to dry. Protein-bound SRB was released by adding 100 µl 10 mM Tris base. Plates were measured in a plate photometer (Thermo Scientific Multiscan GO spectrophotometer, Waltham, MA, United States) at 540 nm. On each plate wells were designed to contain vehicle-treated cells. In calculations the readings for these wells was considered as 1 and all readings were expressed relative to these values.
Statistical analysis was performed using 8.0.1 version of Graphpad Prism. Values were tested for normal distribution using the D’Agostino and Pearson normality test. When necessary, values were log normalized or were normalized using the Box-Cox normalization method ([Box and Cox, 1964]) as indicated in the figure captions. Non-linear regression was performed using the built-in “[Inhibitor] vs. response—Variable slope (four parameters), least square fit” utility of Graphpad that yielded IC50 and Hill slope values.

[5] = test system: Staphylococcus aureus (ATCC29213); test: Broth microdilution MIC, Staphylococcus aureus reference strain; settings: Staphylococcus aureus ATCC29213, 24 h
Method: The MIC values of the complexes were determined against the reference strains of S. aureus (ATCC29213) and E. faecalis. (ATCC29212) and against clinical VRE and MRSA isolates by microdilution assays (repeated at least twice in duplicates) as described in Materials and Methods. The numbers indicate how many isolates were susceptible to the compound out of those tested; i.e., 1/6 stands for 1 isolate was susceptible out of 6 tested. […] Cells were harvested and lysed. Cellular proteins was separated on a 10% SDS-PAGE gel and were blotted. Blots were probed with 4HNE antibody (top blot), the lower blot was stained with amido black. Arrows point at band of interest. Experiments were repeated three times and a representative blot is shown. On the blots brightness and contrast were adjusted. […] Each was matched to a substance and strain by its position over the x-axis categories. / Ir-7: ND and 0/3 (left plot) and ND and 0/6 (right plot) were matched to E. faecalis/VRE and S. aureus/MRSA by position only.
We used the reference strains of Staphylococcus aureus (ATCC29213), and Enterococcus faecalis (ATCC29212) that were purchased from ATCC (Manassas, VA, United States).
Microdilution experiments were performed according to the standards of EUCAST ([EUCAST, 2021]). […] The inoculated plates were incubated for 24 h at 37°C then were assessed visually. […] All experiments were performed at least twice in duplicates.

Structure (SMILES) | ID8 MTT Max. (maximal inhibition) (ID8 ovarian cancer cells [1]) | A2780 MTT Max. (maximal inhibition) [2] [%] | Fibroblast MTT Max. (maximal inhibition) [3] [%] | IC50 (ID8 ovarian cancer cells [4]) [µM] | ID8 SRB IC50 (ID8 ovarian cancer cells [4]) | ID8 SRB Max. (maximal inhibition) (ID8 ovarian cancer cells [4]) [%] | MIC, Reference S. aureus [5] [µM]
Cc1c(C)c(C)[c-](C)c1C.F[P-](F)(F)(F)(F)F.O=C(OCC1OC(n2cc(-c3ccc4ccccc4n3)nn2)C(OC(=O)c2ccccc2)C(OC(=O)c2ccccc2)C1OC(=O)c1ccccc1)c1ccccc1.[Cl][Ir+2] (mixture of isomers) [Ir-7] | 19.23% | 23.2 | 12.81 | 0.799 | submicromolar or low micromolar | >90 | –
Cc1ccc(C(C)C)cc1.F[P-](F)(F)(F)(F)F.O=C(OCC1OC(n2cc(-c3ccc4ccccc4n3)nn2)C(OC(=O)c2ccccc2)C(OC(=O)c2ccccc2)C1OC(=O)c1ccccc1)c1ccccc1.[Cl][Os+] (mixture of isomers) [Os-7] | 75% and 74.90% | 33.0 | 30.97 | 0.359 | submicromolar or low micromolar | >90 | 20
Cc1ccc(C(C)C)cc1.F[P-](F)(F)(F)(F)F.O=C(OCC1OC(n2cc(-c3ccc4ccccc4n3)nn2)C(OC(=O)c2ccccc2)C(OC(=O)c2ccccc2)C1OC(=O)c1ccccc1)c1ccccc1.[Cl][Ru+] (mixture of isomers) [Ru-7] | 32.56% | 23.4 | 23.93 | 1.14 | submicromolar or low micromolar | >90 | 10
